Reference: patent publication US10149837B2, “Selective agonists of beta-adrenergic type 3 receptors (BAR3) and use thereof” (UNIVERSITA' DEGLI STUDI DI BARI, priority 2015, dated 2018)
“Also recorded” adds a separate entry of the source.

How the values were obtained:
AQP2 = assay: kidney slices: AQP2 localisation by confocal laser scanning after stimulation; format: cell-based, mice; conditions: slices of vital tissue from murine C57BL-6 kidneys, 45 minutes of stimulation
Description: By the technique of “kidney slices”, thin slices of vital tissue from murine C57BL-6 kidneys have been obtained which, maintained in culture medium and appropriate atmosphere, have been stimulated with agonists able to increase the intracellular levels of cAMP (forskolin and vasopressin) and with the agonist of murine BRL37344 BAR3. After 45 minutes of stimulation the tissues have been fixed, marked for AQP2 and observed by confocal laser scanning.

[1] = system: conditional knockout mice for AVPR2; assay: diuresis and urine osmolality in the animal model of X-linked nephrogenic diabetes insipidus (metabolic cage); format: in vivo
Description: At one hour from the injection of the compound, the diuresis of the treated mice is set to zero compared to control animals.
In the mouse affected by nephrogenic diabetes insipidus (X-NDI) for conditional deletion of the AVPR2 receptor, the compound BRL37344 has been administered by intraperitoneal injection at the dosage of 0.6 mg/Kg. Five animals received the compound whereas as many control animals received the vehicle only (physiological saline). The cumulative diuresis has been measured in metabolic cage in both animal groups.
The data obtained are in line with a transient effect induced by the stimulation of the renal BAR3 receptors by BRL37344.

[2] = X-NDI animal model, summary statement, no time point
[3] = X-NDI mice, 0.6 mg/Kg intraperitoneal, second hour after injection, vs control group, acetic acid sodium hydrate, 0.6 mg/kg

In the case of `C[C@H](Cc1ccc(OCC(=O)O)cc1)NC[C@H](O)c1cccc(Cl)c1.O.[Na]` (relative stereo) [BRL37344, (±)-(R*,R*)-[4-[2-[[2-(3-Chlorophenyl)-2-hydroxyethyl]amino]propyl]phenoxy] acetic acid sodium hydrate], the “apical membrane expression (repositioning) of AQP2” value (AQP2; acetic acid sodium hydrate) is reported as “able to increase the apical levels of AQP2 with an effect comparable to that produced by vasopressin; also recorded: determines a repositioning of the marking of AQP2 on the apical membrane”, the diuresis [1, 2] is reported as “drastic reduction of diuresis” and the urine osmolality [1, 2] is reported as “increase of urine osmolality”. The cumulative diuresis ([1]; X-NDI mice, 0.6 mg/Kg intraperitoneal, end of third hour after injection, vs control group, acetic acid sodium hydrate, 0.6 mg/kg) was “still drastically reduced; also recorded: still remained statistically lower than that of the control group”, the cumulative diuresis ([1]; X-NDI mice, 0.6 mg/Kg intraperitoneal, first hour after injection, vs control group) was “set to zero” and the cumulative diuresis [1, 3] was “drastically reduced; also recorded: statistically reduced compared to the control group”. For the same compound, the urine osmolality [1, 3] was “significantly increased” and the urine osmolality ([1]; X-NDI mice, 0.6 mg/Kg intraperitoneal, third hour after injection, vs control group, acetic acid sodium hydrate, 0.6 mg/kg) was “tendency to increase although not statistically significant; also recorded: on average higher although not statistically different from that of the control group”.

With `NC(=O)CC[C@@H]1NC(=O)[C@H](Cc2ccccc2)NC(=O)[C@H](Cc2ccc(O)cc2)NC(=O)[C@@H](N)CSSC[C@@H](C(=O)N2CCC[C@H]2C(=O)N[C@@H](CCCN=C(N)N)C(=O)NCC(N)=O)NC(=O)[C@H](CC(N)=O)NC1=O` [Vasopressin, vasopressin] the “apical membrane expression (repositioning) of AQP2” value (AQP2) was “translocates AQP2 on the apical membrane of the tubular cells”.
